According to ChEMBL document CHEMBL4673397, “Dihydroorotate Dehydrogenase Inhibitors for Treating Acute Myelogenous Leukemia (AML)” (ACS Med Chem Lett, 2021):

Assays:
[1] = system: MOLM-13; assay: Antiproliferative activity against human MOLM-13 cells assessed as reduction in cell viability measured after 72 hrs by Celltiter-Glo assay; format: functional, cell-based; conditions: MOLM-13, 72 h
[2] = target: Dihydroorotate dehydrogenase (quinone), mitochondrial (Homo sapiens, UniProt Q02127); assay: Inhibition of human DHODH (30 to 390 residues) expressed in Escherichia coli using dihydroorotate as substrate and CoQ10 as co-substrate by DCIP dye based spectrophotometry analysis
Sequence of Dihydroorotate dehydrogenase (quinone), mitochondrial (Q02127 whole entry, the tested form may be a part): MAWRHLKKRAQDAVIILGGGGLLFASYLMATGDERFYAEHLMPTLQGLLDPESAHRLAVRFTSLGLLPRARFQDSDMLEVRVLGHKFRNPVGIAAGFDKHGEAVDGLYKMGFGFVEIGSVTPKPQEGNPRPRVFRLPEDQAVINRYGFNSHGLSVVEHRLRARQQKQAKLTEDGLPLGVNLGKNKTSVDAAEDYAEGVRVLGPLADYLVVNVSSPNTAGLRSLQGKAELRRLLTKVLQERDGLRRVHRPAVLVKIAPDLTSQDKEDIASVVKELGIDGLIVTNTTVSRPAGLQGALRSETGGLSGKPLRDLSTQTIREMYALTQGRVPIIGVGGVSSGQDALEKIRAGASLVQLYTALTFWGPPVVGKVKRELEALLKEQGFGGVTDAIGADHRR

Row | SMILES | IC50 [1] [nM] | IC50 [2] [nM]
1 | C=C(C)c1cn(-c2cc(F)ccc2C)c(=O)c2cc(F)c(-n3nc(CO)n(CC)c3=O)cc12 | 0.09 | –
2 | C=C(C)c1cn(-c2ccccc2F)c(=O)c2cc(F)c(-n3nc(CO)n(CC)c3=O)cc12 | 0.3 | < 0.169
3 | CCn1c(CO)nn(-c2cc3c(C(C)C)cn(-c4c(F)cccc4Cl)c(=O)c3cc2F)c1=O | 0.2 | –
4 | CCn1c(CO)nn(-c2cc3c(C(C)C)cn(-c4ccccc4C)c(=O)c3cc2F)c1=O | 0.2 | –
5 | C=C(C)c1cn(-c2c(F)cccc2Cl)c(=O)c2cc(F)c(-n3nc(CO)n(CC)c3=O)cc12 | 0.1 | –
6 | C=C(C)c1cn(-c2c(F)ccc(OC)c2Cl)c(=O)c2cc(F)c(-n3nc(CO)n(CC)c3=O)cc12 | 0.1 | –
